Like-named read-outs stand apart in the source and are kept apart here. Where no end group is shown, it is not given here.
Key:
[1] = RESTORE-2 naive cohort, retrospective propensity score matched study; format: in vivo, human; conditions: for Incidence rate of blood glucose <54 mg/dl / Incidence rate of blood glucose ≤70 mg/dl: during 6 months; for FBG change at 6 months / FBG reduction at 6 months / HbA1c reduction from baseline to 12 months: in vivo; for HbA1c change from baseline to 6 months: propensity score matched, 357 per cohort
[2] = tested on: Arrb2-/- beta cells; assay: Incretin responses in Arrb2-/- beta cells; format: cell-based, mouse
[3] = SUSTAIN 10 post hoc analysis by baseline SGLT-2i; format: in vivo, human
[4] = format: in vivo, human; conditions: once weekly
[5] = tested on: primary cilium of islet beta cells; assay: Cilia Ca2+ imaging in mouse islets; format: cell-based; conditions: GABA 1-10 nM; GABAB-receptor agonist Baclofen; Vigabatrin (inhibition of GABA degradation)
[6] = Sodium-phenylbutyrate 2-week crossover trial in type 2 diabetes
[7] = 3-month exercise training with carnosine or placebo in overweight elderly; format: in vivo, human
[8] = tested on: H9C2 cells; assay: 2-NBD-Glucose uptake; format: cell-based; conditions: for 2-NBD-Glucose uptake after MG: 25μM MG 24h, after 60 min; for 2-NBD-Glucose uptake after insulin: 100nM 30min, 20 minutes
[9] = tested on: mouse cardiac endothelial cells (MCECs); assay: Methylglyoxal treatment of mouse cardiac endothelial cells; format: cell-based
[10] = SURPASS-2, add-on to metformin in type 2 diabetes; format: in vivo, human; conditions: TZP range over 5-15 mg; SEMA 1 mg
[11] = tested on: C2C12 myotubes; assay: C2-ceramide recycling and insulin response in C2C12 myotubes; format: cell-based, mouse
[12] = Contribution of HFCS-55 fructose to hepatic fatty acid synthesis, 13C/2H NMR; format: in vivo, mouse
[13] = Ciprofibrate 5-week crossover study in prediabetic male volunteers; format: in vivo, human
[14] = tested on: INS1E cells; assay: Fatty acid toxicity in INS1E cells; format: cell-based, rat; conditions: 24 h
[15] = format: in vivo, human; conditions: comparator arm
[16] = Insulin icodec titration trial, CGM hypoglycaemia duration, insulin-naive T2D; format: in vivo, human; conditions: 4.4-7.2 mmol/L ±4 U/day
[17] = tested on: male Wistar rats; assay: 30-min filament middle cerebral artery occlusion; format: in vivo, rat; conditions: 48 h after MCAO; healthy 18 points, maximal deficit 3 points
[18] = tested on: INS-1 832/13 cells; assay: mRNA expression in INS-1 832/13 cells under ER stress; format: cell-based, rat
[19] = 2-step hyperinsulinemic-euglycemic clamp
[20] = training combined with carnosine 2g/day

## Insulin Degludec 100 U/mL [IDeg-100]
[1]
  Incidence rate of blood glucose <54 mg/dl: 0.02 episodes per patient-months
  Incidence rate of blood glucose ≤70 mg/dl: 0.14 episodes per patient-months
  FBG change at 6 months: -61 mg/dL
  FBG reduction at 6 months: 3.4 mmol/L
  HbA1c reduction from baseline to 12 months: -1.44%
  HbA1c change from baseline to 6 months: -1.69%

## glucagon-like peptide 1 (HAEGTFTSDVSSYLEGQAAKEFIAWLVKGR; ends and bridges not checked; UniProt P01275 98-127, looked up) [GLP-1]
[2]
  Reduction of ERK1/2 activation in Arrb2-/- beta cells: ~ 50%

## CC[C@H](C)[C@H](NC(=O)[C@H](Cc1ccccc1)NC(=O)[C@H](CCC(=O)O)NC(=O)[C@H](CCCCNC(=O)COCCOCCNC(=O)COCCOCCNC(=O)CC[C@H](NC(=O)CCCCCCCCCCCCCCCCC(=O)O)C(=O)O)NC(=O)[C@H](C)NC(=O)[C@H](C)NC(=O)[C@H](CCC(N)=O)NC(=O)CNC(=O)[C@H](CCC(=O)O)NC(=O)[C@H](CC(C)C)NC(=O)[C@H](Cc1ccc(O)cc1)NC(=O)[C@H](CO)NC(=O)[C@H](CO)NC(=O)[C@@H](NC(=O)[C@H](CC(=O)O)NC(=O)[C@H](CO)NC(=O)[C@@H](NC(=O)[C@H](Cc1ccccc1)NC(=O)[C@@H](NC(=O)CNC(=O)[C@H](CCC(=O)O)NC(=O)C(C)(C)NC(=O)[C@@H](N)Cc1cnc[nH]1)[C@@H](C)O)[C@@H](C)O)C(C)C)C(=O)N[C@@H](C)C(=O)N[C@@H](Cc1c[nH]c2ccccc12)C(=O)N[C@@H](CC(C)C)C(=O)N[C@H](C(=O)N[C@@H](CCCNC(=N)N)C(=O)NCC(=O)N[C@@H](CCCNC(=N)N)C(=O)NCC(=O)O)C(C)C [semaglutide]
[3]; with SGLT-2i
  Premature treatment discontinuations due to AEs: 5.5%
[3]; without SGLT-2i
  Premature treatment discontinuations due to AEs: 13.4%

## Basal insulin Fc [BIF]
[4]; BIF-A1, fasting glucose target ≤7.8 mmol/L
  HbA1c reduction from baseline to Week 32, mean±SE: 0.6±0.1%
[4]; BIF-A2, fasting glucose target ≤6.7 mmol/L
  HbA1c reduction from baseline to Week 32, mean±SE: 0.6±0.1%

## NCC(CC(=O)O)c1ccc(Cl)cc1 (stereo not shown) [Baclofen]
[5]
  Increase of occurrence of cilia Ca2+ flashes: 3-4 fold

## O=C(O)CCCc1ccccc1 [NaPB, sodium-phenylbutyrate]
[6]; [19]
  Peripheral insulin sensitivity, higher than placebo: 27%
  ΔRd (insulin-stimulated glucose disposal rate minus baseline): 13.2 ± 1.8 µmol/kg/min
[6]; 4.8 g/m²/day for 2 weeks, LCMS
  Increase of plasma phenylbutyrate levels vs placebo: 5.5 fold
[6]; after 2 weeks
  Fasting glucose: 7.8 ± 0.4 mmol/L
  Fasting plasma isoleucine: 105.2 ± 3.5 µmol/L
  Fasting plasma leucine: 168.7 ± 5.1 µmol/L
  Fasting plasma valine: 275.3 ± 10.3 µmol/L
[6]; clamp
  Peripheral insulin-mediated glucose oxidation: 11.9 ± 0.7 µmol/kg/min
  ΔRER (metabolic flexibility): 0.09 ± 0.01
[6]; skeletal muscle ex vivo
  O2-flux, maximally coupled mitochondrial respiration fueled by pyruvate: 74.0 ± 4.1 pmol/s/mg

## NCCC(=O)N[C@@H](Cc1cnc[nH]1)C(=O)O [carnosine]
[7]; exercise with carnosine
  Stimulation of coupled mitochondrial respiration rate in permeabilized muscle fibers, compared to exercise alone: 36.5%
[7]; [20]
  Improvement in aerobic fitness (VO2max): 14.8%
  Improvement in metabolic flexibility (ΔRQ): 7.3%
[7]; training combined with carnosine 2g/day, 3 months
  Improvement in sit-to-stand test: 9.2%

## C=CC(N)CCC(=O)O (stereo not shown) [Vigabatrin]
[5]
  Increase of occurrence of cilia Ca2+ flashes: 3-4 fold

## CC(=O)C=O [MG, methylglyoxal]
[8]; 20mM glucose, printed 54% vs 44%
  2-NBD-Glucose uptake after MG: 54%
[8]; 30 mM glucose, printed 50% vs 39%
  2-NBD-Glucose uptake after MG: 50%
[9]; 500 μM, Hspa1a/Hspa1b KO cells
  Hspa9 mRNA, mean: 1.52 fold
  Hspa9 protein, mean: 3.17
  Hspd1 mRNA, mean: 1.57 fold
  Hspd1 protein, mean: 3.84
[9]; 500 μM, wild-type cells
  Drp1 mRNA: 1.39 fold
  Hspa1a mRNA, mean: 1.57 fold
  Hspa1a/Hspa1b protein level, mean: 1.56 fold
  Hspa1b mRNA, mean: 1.78 fold
  Hspa9 mRNA, mean: 1.42 fold
  Hspa9 protein, mean: 1.96 fold
  Hspd1 mRNA, mean: 2.11 fold
  Hspd1 protein, mean: 2.35 fold
[9]; Hspa1a/Hspa1b KO cells
  Drp1 mRNA, mean: 2.11
[9]; after MG treatment
  Bnip3, mean: 0.39 fold
  Parkin, mean: 0.45 fold
  Pink1, mean: 0.69 fold

## CC[C@H](C)[C@H](NC(=O)[C@H](Cc1ccccc1)NC(=O)[C@H](CCC(=O)O)NC(=O)[C@H](CCCCNC(=O)COCCOCCNC(=O)COCCOCCNC(=O)CC[C@H](NC(=O)CCCCCCCCCCCCCCCCC(=O)O)C(=O)O)NC(=O)[C@H](C)NC(=O)[C@H](C)NC(=O)[C@H](CCC(N)=O)NC(=O)CNC(=O)[C@H](CCC(=O)O)NC(=O)[C@H](CC(C)C)NC(=O)[C@H](Cc1ccc(O)cc1)NC(=O)[C@H](CO)NC(=O)[C@H](CO)NC(=O)[C@@H](NC(=O)[C@H](CC(=O)O)NC(=O)[C@H](CO)NC(=O)[C@@H](NC(=O)[C@H](Cc1ccccc1)NC(=O)[C@@H](NC(=O)CNC(=O)[C@H](CCC(=O)O)NC(=O)C(C)(C)NC(=O)[C@@H](N)Cc1cnc[nH]1)[C@@H](C)O)[C@@H](C)O)C(C)C)C(=O)N[C@@H](C)C(=O)N[C@@H](Cc1c[nH]c2ccccc12)C(=O)N[C@@H](CC(C)C)C(=O)N[C@H](C(=O)N[C@@H](CCCNC(=N)N)C(=O)NCC(=O)N[C@@H](CCCNC(=N)N)C(=O)NCC(=O)O)C(C)C [SEMA, semaglutide]
[10]
  Diarrhoea: 12%
  Nausea: 18%
  Vomiting: 8%

## CCCCCCCCCCCCC/C=C/[C@@H](O)[C@H](CO)NC(C)=O [C2cer, C2-Cer]
[11]; at 25 mM glucose
  Effect on the insulin signal: inhibited completely the insulin signal

## O=C(CO)[C@@H](O)[C@H](O)[C@H](O)CO [fructose]
[12]; HFHS mice
  contribution of acetyl-CoA to oleate synthesis: 7 ± 2%
  contribution of acetyl-CoA to palmitoleate synthesis: 7 ± 2%
  contribution of acetyl-CoA to the synthesis of SFA: 18 ± 3%
[12]; HS mice
  contribution of acetyl-CoA to oleate synthesis: 16 ± 3%
  contribution of acetyl-CoA to palmitoleate synthesis: 18 ± 3%
[12]; HS mice, mean ± standard error
  contribution of acetyl-CoA to the synthesis of SFA: 28 ± 4%

## CC(C)(Oc1ccc(C2CC2(Cl)Cl)cc1)C(=O)O (stereo not shown) [ciprofibrate]
[13]; 100 mg/day for 5 weeks
  Hepatic lipid content: 10.4 ± 10.0%
  Serum triglycerides: 1.57 ± 1.05 mmol/L
[13]; 18F-FDG PET during clamp
  Myocardial net glucose uptake: 0.040 ± 0.024 ml/100ml/min/mIU insulin
[13]; 18F-FDG PET during hyperinsulinemic euglycemic clamp
  Net hepatic glucose uptake (Ki): 0.7 ± 0.2 ml/100ml/min

## CCCCCCCC/C=C\CCCCCCCC(=O)O [OA, oleate]
[14]; INS1E-ctr cells, 500 μM each fatty acid, MTT
  Cell viability: 91%

## insulin glargine U100 [IGlar U100]
[15]
  Overall hypoglycaemic episode duration, median (IQR): 35.0 (20.0, 60.0) min
[16]
  Overall hypoglycaemic episode duration, median (IQR): 35.0 (20.0, 70.0) min

## NCCCC(=O)O [GABA, Gamma aminobutyric acid]
[5]
  Increase of occurrence of cilia Ca2+ flashes: 3-4 fold

## COc1ccc(/C=C/C(=O)c2c(-c3ccccc3)c3ccccc3[nH]c2=O)cc1 [ceranib-2]
[11]; 2 h treatment, ceranib-2 alone
  Accumulation in total endogenous Cer content: 50%

## insulin
[8]; H9C2, 20mM glucose 3 months
  2-NBD-Glucose uptake after insulin: 17%
[8]; H9C2, 20mM glucose 6 months
  2-NBD-Glucose uptake after insulin: 8%
[8]; H9C2, 30mM glucose 3 months
  2-NBD-Glucose uptake after insulin: 15%
[8]; H9C2GLUT4, 20mM glucose 3 months
  2-NBD-Glucose uptake after insulin: 31%
[8]; H9C2GLUT4, 20mM glucose 6 months
  2-NBD-Glucose uptake after insulin: 27%
[8]; H9C2GLUT4, 30mM glucose 3 months
  2-NBD-Glucose uptake after insulin: 43%

## NCCCC(O)(P(=O)(O)O)P(=O)(O)O [alendronate]
Ever use
  Crude OR of developing type 2 diabetes: 0.93
  Multiple adjusted OR of developing type 2 diabetes: 0.64
More than 8 years of use
  Adjusted OR of developing type 2 diabetes: 0.47

## CN(C)C(=N)N=C(N)N [MET, metformin]
[17]
  Garcia score (neurological deficit): 12.0 (6.5; 12.5) points

## CCCCCCCCCCCCCCCC(=O)O [PA, palmitate]
[14]; INS1E-SPL cells, 500 μM
  Viability decrease stronger than in INS1E-ctr: ~ 25%
[14]; INS1E-SPP cells, 500 μM
  Cell viability loss: 20%

## Insulin Glargine 300U/mL [Gla-300]
[1]; 95%CI -0.29;0.27
  Between group mean difference in HbA1c at 6 months, Gla-300 vs IDeg-100: 0.01%
[1]
  Incidence rate of blood glucose <54 mg/dl: 0.02 episodes per patient-months
  Incidence rate of blood glucose ≤70 mg/dl: 0.13 episodes per patient-months
  FBG change at 6 months: -63 mg/dL
  FBG reduction at 6 months: 3.5 mmol/L
  HbA1c reduction from baseline to 12 months: -1.71%
  HbA1c change from baseline to 6 months: -1.70%

## C/C=C(/C)C(=O)O[C@H]1C(C)=C2[C@H]([C@@H]1OC(=O)CCCCCCC)[C@@](C)(OC(C)=O)C[C@H](OC(=O)CCC)[C@@]1(O)[C@H]2OC(=O)[C@@]1(C)O [thapsigargin]
[18]
  Decrease of insulin mRNA expression (Ins1 and Ins2): 85%
  Increase of Atf4 mRNA expression: 3.0 fold
  Increase of Atf6 mRNA expression: 1.8 fold
  Increase of Cebpg mRNA expression: 3.7 fold
  Increase of Xbp1s mRNA expression: 2.9 fold
